Results on two substances are retold here after patent US11921120B2, “Compositions and methods for identifying and modulating metabolic health” (Duke University, priority 2015, dated 2024).

The test system of one series is col5a1. The series can be described thus: RT-PCR of col5a1 mRNA isoforms after Vivo-Morpholino injection. The format is in vivo, zebrafish. To be noted: serial intra-abdominal injection, 80 ng/mg vMO. The protocol:
Zebrafish qRT-PCR. RNA extraction, PCR and quantitative RT-PCR (qRT-PCR) was performed as previously described using total RNA from dissected whole VAT tissue of 10 mm zebrafish. (Rawls J F, et al. (2007), PNAS 104(18):7622-7627.) VAT and SAT were dissected from adult Ekkwill strain wild-type zebrafish and used to assess plxnd1 mRNA levels (FIG. 18(B)). Samples contained 5-8 siblings or mutants per group, and qRT-PCR was ran with three biological replicate groups, and reactions ran in triplicate.
Zebrafish were raised under normal conditions until 30-50 days post fertilisation. Fish were anesthetised in 0.67 g/L MS222 and SL measured using an eyepiece reticle. Intra-abdominal injections were then performed on a Nanoject II injector (Drummond) as previously described. (McMenamin S K, et al (2013), Endocrinology 154(4):1476-1487.) At each injection, dosage was adjusted according to body weight (mg) using the following equation: mg=−48.10+7.36*SL+0.68*(SL-8.94)^2. (McMenamin S K, et al (2013), Endocrinology 154(4):1476-1487.) Concentration of individual compounds at injection were (relative to volume/mass of fish): 80 ng/mg col5a1-ile2 vMO (5′-[…]-3′; SEQ ID NO.: 55) or col5a1-e3i3 vMO (5′-[…]-3′; SEQ ID NO.: 56) (Gene-Tools, LLC), 100 μM EDHB (Sigma) and 80 ng/mg EdU. Control animals were injected with either a standard control vMO (5′-[…]-3′; SEQ ID NO.: 57) (Gene-Tools) or 0.1% DMSO.

The nature of series [1]: Turbidity assay of ECM extracted from VAT (in vitro fibrillogenesis). Also on record: species or system zebrafish. To be noted: ECM of sibling VAT, vMO injected before extraction. An excerpt: To assess fibrillogenesis in plxnd1 mutant VAT, ECM is extracted from zebrafish VAT, and fibril polymerization and gel formation is induced in vitro (FIG. 13). Turbidity assays are used to determine the rate and ultimate extent of fibrillogenesis. ECM was purified from dissected zebrafish VAT (˜100 VATS per tube, triplicate tubes per condition) as previously described. (Uriel S, et al. (2009), Tissue engineering. Part C, Methods 15(3):309-321.) Urea extraction was allowed to proceed for 14-21 days at 4° C. Protein concentration (˜7 mg/ml) was assessed by the Bradford assay (Thermo Scientific). […] To induce fibril polymerization and gel formation, acetic acid was added to a pH of 7. Turbidity assays were conducted as previously described using a Spectronic 20D+ spectrometer (Thermo Scientific). (Wood G C & Keech M K (1960), The Biochemical journal 75:588-598.)

The subject of a further series is Type V collagen (Col5). As to the kind of experiment: Col5 immunofluorescence in VAT after vMO injection. It is filed as in vivo, zebrafish. To be noted: endothelial cell and peri-adipocyte locations. How it is done: Immunohistochemistry was performed as previously described (Kanther M, et al. (2011), Gastroenterology 141(1):197-207.) Immunohistochemistry was conducted with antibodies to Type V collagen (Col5) (Rockland, #600-401-107S), Laminin (Sigma, #L-9393), WCL15 (Romano N, et al. (1998), Anatomy and embryology 198(1):31-41; van der Sar A M, et al. (2004), Trends in microbiology 12(10):451-457), and Alexa 568 (Invitrogen, #A-1 1011). Transmission electron microscopy was carried out as described previously. (Flynn E J, et al. (2009), Journal of lipid research 50(8):1641-1652.) Whole 10-12 mm SL fish were processed for paraffin sectioning and Masson's trichrome, combined Masson's and Elastin, periodic acid Schiff (PAS) and Alcian Blue stains. (Sabaliauskas N A, et al. (2006), Methods 39(3):246-254.)
Zebrafish were raised under normal conditions until 30-50 days post fertilisation. Fish were anesthetised in 0.67 g/L MS222 and SL measured using an eyepiece reticle. Intra-abdominal injections were then performed on a Nanoject II injector (Drummond) as previously described. (McMenamin S K, et al (2013), Endocrinology 154(4):1476-1487.) At each injection, dosage was adjusted according to body weight (mg) using the following equation: mg=−48.10+7.36*SL+0.68*(SL-8.94)^2. […]

For the substance “col5a1-e3i3 vMO: Vivo-Morpholino 5′-GAGTTCCTACTTACCTCAAACACCT-3′ (SEQ ID NO.: 56) targeting zebrafish col5a1 exon 3-intron 3 boundary (all phosphorodiamidate morpholino (PMO); Vivo-Morpholino, delivery moiety not given here, further chemistry not fully specified)”, the “splicing of col5a1 (RT-PCR, mRNA isoform)” value in the series on col5a1 is “skipping of exon 3”.
As to “col5a1-ile2 vMO: Vivo-Morpholino 5′-GAAACATGGATGCTACAGAGAGAGA-3′ (SEQ ID NO.: 55) targeting zebrafish col5a1 intron 1-exon 2 boundary (all phosphorodiamidate morpholino (PMO); Vivo-Morpholino, delivery moiety not given here, further chemistry not fully specified)”, the in vitro fibrillogenesis result in series [1] was “did not affect”. The “Col5 protein levels (Col5 reactivity)” value with Type V collagen (Col5) is listed as “significantly reduced”. In addition, the “splicing of col5a1 (RT-PCR, mRNA isoform)” value with col5a1 is reported as “inclusion of part of intron 1”.
